Laboratory results reported in patent publication US11236122B2, “Triterpene amine derivatives” (DFH THERAPEUTICS, priority 2018, dated 2022).
Structures can show the parent of a compound that is named as a salt.

How the values were obtained:
[1] = Cytotoxicity assay CellTiter-Blue, HeLa; format: cell-based; conditions: human; HeLa cells, 4 to 8 days; mean ± SEM, three experiments
Description: (§1) Cytotoxicity assays. Cytotoxicity was measured with CellTiter-Blue® Cell Viability Assay according to the manufacturer's protocol (Promega). Two cell lines, MT-4 and HeLa, were used in this assay. Cells were incubated with serial dilution of compounds at 37° C. for 4 to 8 days and subjected to CellTiter-Blue Reagent. The fluorescent signal was measured at 560 nm Ex/590 nm Em by a plate reader (TECAN, Infinite® M1000 PRO). The 50% cytotoxic concentrations (CC50s) were defined as compound concentrations at which the fluorescent signals were reduced by 50%/relative to the no-inhibitor (DMSO only) controls using GraphPad Prism 6 software and are reported in Table 1.

WT pNL4-3 = assay: CA-SP1 accumulation assay, WT NL4-3; format: cell-based, HIV-1; conditions: 100 nM compound, HeLa or 293T cells
Procedure, shortened: (§2)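 HeLa or 293T cells transfected with proviral clone, maturation inhibitors present through transfection and labeling; at 24 h, [^35S]Met/Cys labeling 2-3 h. Virions pelleted by ultracentrifugation, lysed, CA and CA-SP1 resolved by SDS-PAGE and quantified by phosphorimaging.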

pNL4-3 SP1-V7A = assay: CA-SP1 accumulation assay, SP1-V7A derivative; format: cell-based, HIV-1; conditions: 100 nM compound, HeLa or 293T cells
Procedure, shortened: as §2

[2] = system: pNL4-3 SP1-V7A in MT-4 cells; assay: Antiviral assay in MT-4 cells (RT readout), SP1-V7A; format: cell-based, HIV-1; conditions: Human immunodeficiency virus 1, MT4, 96 h, read-out: Antiviral Assay IC50 (nM) SP1 V7A
Description: (§3) Cell culture, plasmids and transfections. The MT-4 T-cell line was maintained in RPMI-1640 medium supplemented with 10% (vol/vol) fetal bovine serum (FBS), 2 mM glutamine, 100 U/mL penicillin and 100 μg/mL streptomycin at 37° C. in a humidified 5% CO2 atmosphere. HeLa and 293T cells were maintained in Dulbecco's modified Eagle's medium (DMEM) supplemented with 5% (vol/vol) FBS, 2 mM glutamine, 100 U/mL penicillin and 100 μg/mL streptomycin. Molecular clones used in this study were WT pNL4-3 and the derivative encoding a Val-to-Ala mutation at SP1 residue 7, referred to as SP1-V7A. The MT-4 T-cell line was transfected the DEAE/dextran procedure; HeLa and 293T cells were transfected with linear polyethylenimine (L-PEI) or Lipofectamine 2000 (Invitrogen) as recommended by the supplier.
(§4) Antiviral assays. To produce HIV-1 stocks, 293T cells were transfected with WT pNL4-3 or the SP1-V7A derivative and culture supernatants were collected 24 h post transfection. RT-normalized virus supernatants were used to infect MT-4 cells at room temperature for 30 min. Cells were then cultured in the presence of serial dilutions of compounds. […] The IC50s in primary peripheral blood mononuclear cells (PBMCs) were calculated with a multi-clade panel of HIV-1 isolates by Southern Research Institute (Frederick, Md.). […]

[3] = Cytotoxicity assay CellTiter-Blue, MT-4; format: cell-based; conditions: human; MT-4 cells, 4 to 8 days; mean ± SEM, three experiments
Description: as §1

WT pNL4-3 in MT-4 cells = assay: Antiviral assay in MT-4 cells (RT readout), WT NL4-3; format: cell-based, HIV-1; conditions: Human immunodeficiency virus 1, NL43, MT4, 96 h, read-out: Antiviral Assay IC50 (nM) NL4-3
Description: as §3, §4

## C=C(C)[C@@H]1CC[C@]2(CCNC3CCN(CCOC)CC3)CC[C@]3(C)[C@H](CC[C@@H]4[C@@]5(C)CC[C@H](OC(=O)CC(C)(C)CC(=O)O)C(C)(C)[C@@H]5CC[C@]43C)[C@@H]12 [Compound 51g, (3β)-17-[2-[[1-(2-Methoxyethyl)piperadin-4-yl]amino]ethyl]-28-norlup-20(29)-en-3-ol, 3-(5-Hydrogen 3,3-Dimethylpentanedioate), Bis(trifluoroacetate) Salt]
[1]
  CC50: 551 ± 83 nM
WT pNL4-3
  % CA-SP1 Accumulation 100 nM NL4-3: 85.0 (2) %
pNL4-3 SP1-V7A
  % CA-SP1 Accumulation 100 nM SP1 V7A: 46.5 (3) %
[2]
  IC50: 19 ± 6 nM
[3]
  CC50: 406 ± 48 nM
WT pNL4-3 in MT-4 cells
  IC50: 2 ± 0.5 nM
